Measurements from PubChem BioAssay AID256 (DTP/NCI, 2004).
Toxic doses and inconclusive results are not listed. The calls were made as follows: active = survival T/C of 150% or more; inactive = T/C below 125% in these data.

Tested on: CD2F1 mice, L1210 leukemia ip, survival T/C
Test: NCI In Vivo Anticancer Drug Screen. Data for tumor model L1210 Leukemia (intraperitoneal) in CD2F1 (CDF1) mice
Conditions: endpoint: mean survival time, higher = longer survival
In short: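 Implant tumor; dose compound or vehicle; measure endpoint in both groups; report treated divided by control.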

[1] = dose: 100.0 mg/kg/injection, schedule: Q04DX003 (ip), vehicle: saline with Tween-80
[2] = dose: 200.0 mg/kg/injection, schedule: Q04DX003 (ip), vehicle: saline with Tween-80
[3] = dose: 400.0 mg/kg/injection, schedule: Q04DX003 (ip), vehicle: saline with Tween-80
[4] = dose: 50.0 mg/kg/injection, schedule: Q01DX009 (ip), vehicle: saline with Tween-80
[5] = dose: 100.0 mg/kg/injection, schedule: Q01DX009 (ip), vehicle: saline with Tween-80
[6] = dose: 200.0 mg/kg/injection, schedule: Q01DX009 (ip), vehicle: saline with Tween-80
[7] = dose: 50.0 mg/kg/injection, schedule: Q01DX009 (ip), vehicle: saline

Measured: T/C

Cc1c(O)c(N=NC(N)=S)c2ccccc2c1O
inactive: [1] 100 % of control | [2] 102 % of control | [3] 100 % of control

O=C1C=Cc2ccccc2C1=O
inactive: dose: 0.63 mg/kg/injection, schedule: Q01DX009 (ip), vehicle: saline 98 % of control | dose: 1.0 mg/kg/injection, schedule: Q01DX009 (ip), vehicle: saline 105 % of control | dose: 1.25 mg/kg/injection, schedule: Q01DX009 (ip), vehicle: saline 104 % of control | dose: 2.0 mg/kg/injection, schedule: Q01DX009 (ip), vehicle: saline 98 % of control | dose: 2.5 mg/kg/injection, schedule: Q01DX009 (ip), vehicle: saline with Tween-80 110 % of control | dose: 2.5 mg/kg/injection, schedule: Q01DX009 (ip), vehicle: saline 98 % of control | dose: 4.0 mg/kg/injection, schedule: Q01DX009 (ip), vehicle: saline 88 % of control

CSc1ncnc2c1C[P+](Cc1ccccc1)(c1ccccc1)CC2 (stereo unspecified)
inactive: dose: 25.0 mg/kg/injection, schedule: Q04DX002 (ip), vehicle: saline with Tween-80 101 % of control | dose: 50.0 mg/kg/injection, schedule: Q04DX002 (ip), vehicle: saline with Tween-80 101 % of control | dose: 100.0 mg/kg/injection, schedule: Q04DX002 (ip), vehicle: saline with Tween-80 101 % of control

COc1cc(/C=C2\C(=O)NC(=O)N(c3ccccc3)C2=O)cc(OC)c1OC
inactive: [1] 100 % of control | [2] 100 % of control

Cc1cc(C)c(C)c(C(C)O)c1C (stereo unspecified)
inactive: [4] 100 % of control | [5] 100 % of control | [6] 97 % of control

CC(C)OC(CCC#N)c1ccc(Cl)cc1 (stereo unspecified)
inactive: dose: 100.0 mg/kg/injection, schedule: Q01DX009 (ip), vehicle: other 98 % of control | dose: 100.0 mg/kg/injection, schedule: Q04DX003 (ip), vehicle: other 94 % of control | dose: 200.0 mg/kg/injection, schedule: Q01DX009 (ip), vehicle: other 107 % of control | dose: 200.0 mg/kg/injection, schedule: Q04DX003 (ip), vehicle: other 94 % of control | dose: 400.0 mg/kg/injection, schedule: Q01DX009 (ip), vehicle: other 96 % of control | dose: 400.0 mg/kg/injection, schedule: Q04DX003 (ip), vehicle: other 93 % of control

O=c1c2ccccc2oc2ccccc12
inactive: [4] 95 % of control | [5] 100 % of control | [6] 93 % of control

C[n+]1ccccc1C#N
inactive: dose: 25.0 mg/kg/injection, schedule: Q01DX009 (ip), vehicle: saline sonified 102 % of control | dose: 50.0 mg/kg/injection, schedule: Q01DX009 (ip), vehicle: saline sonified 102 % of control | [1] 95 % of control

NCCCCCBr
inactive: [7] 98 % of control | dose: 100.0 mg/kg/injection, schedule: Q01DX009 (ip), vehicle: saline 90 % of control | dose: 200.0 mg/kg/injection, schedule: Q01DX009 (ip), vehicle: saline 98 % of control

COC(=O)C(N)CS (stereo unspecified)
inactive: [1] 101 % of control | [2] 101 % of control | [3] 106 % of control

c1ccc(C2=NN(c3ccccc3)C(c3ccccc3)C2NC2CCCCC2)cc1 (stereo unspecified)
inactive: dose: 100.0 mg/kg/injection, schedule: Q04DX003 (ip), vehicle: acetone 93 % of control | dose: 200.0 mg/kg/injection, schedule: Q04DX003 (ip), vehicle: acetone 92 % of control | dose: 400.0 mg/kg/injection, schedule: Q04DX003 (ip), vehicle: acetone 97 % of control

COC(C(O)C=O)C(O)C(O)CO (stereo unspecified)
inactive: [1] 96 % of control | [2] 101 % of control | [3] 95 % of control

[CH3][Sn]([CH3])([CH3])[CH2]CCBr
inactive: dose: 0.39 mg/kg/injection, schedule: Q01DX009 (ip), vehicle: saline 107 % of control | dose: 0.78 mg/kg/injection, schedule: Q01DX009 (ip), vehicle: saline 107 % of control | [7] 89 % of control

O=c1ccc2ccc(O)cc2o1
inactive: [4] 101 % of control | dose: 100.0 mg/kg/injection, schedule: Q01DX001 (ip), vehicle: saline 103 % of control | [5] 93 % of control | dose: 200.0 mg/kg/injection, schedule: Q01DX001 (ip), vehicle: saline 108 % of control | [6] 97 % of control | dose: 400.0 mg/kg/injection, schedule: Q01DX001 (ip), vehicle: saline 103 % of control
